Like-named read-outs stand apart in the source and are kept apart here.
Columns and labels:
[1] = test system: urine tetrahydrocortisone; conditions: healthy adults and elderly subjects; 7-21 days; cited from earlier work
[2] = cited from earlier work; for plasma exposures after single doses, dose proportionality: low single doses; for estimated target capacity / capacity of saturable distribution: population pharmacokinetics model
[3] = INCB-13739 diabetes; R05093151 non-alcoholic fatty liver disease; AZD4017 impaired wound healing; ABT-384 dementia; BI-187004 diabetes; cited from earlier work
HSD-1 [4] = molecular target: T1, HSD-1 (Homo sapiens, UniProt P28845); experiment: Target-mediated drug disposition (TMDD) population PK / PK-PD model; conditions: in vivo
HSD-1 [5] = molecular target: T1, HSD-1; experiment: Surface plasmon resonance binding kinetics in presence of NADPH (residence time); conditions: 300 μM NADPH, reciprocal of the dissociation rate constant
Source text: Pseudo-irreversible HSD-1 inhibitors can be identified via in vitro enzyme kinetics evaluation, in which they are expected to show longer enzyme residence times compared to other HSD-1 inhibitors. Surface plasmon resonance (SPR) is the resonant oscillation of conduction electrons at the interface between negative and positive permittivity material stimulated by incident light. When a protein is bound to a surface, SPR can be used to detect ligand binding to the protein. […] Association and dissociation of test compounds were monitored in the presence of 300 µM NADPH throughout the experiment.

brain HSD-1 = molecular target: T2, brain HSD-1 (Homo sapiens, UniProt P28845); conditions: healthy adults; cited from earlier work
T2 construct: Brain HSD-1 occupancy following a single dose of SPI-62 3 mg; from tissue; host or cells: brain in vivo

[6] = cynomolgus monkey liver; cited from earlier work
liver HSD-1 = liver HSD-1 (Homo sapiens, UniProt P28845); conditions: same subjects, multiple doses; cited from earlier work
skin HSD-1 = skin HSD-1 (Homo sapiens, UniProt P28845); conditions: in vivo; cited from earlier work
adipose HSD-1 = molecular target: T3, adipose HSD-1 (Homo sapiens, UniProt P28845); conditions: in vivo; cited from earlier work
T3 construct: infused continuously into subcutaneous abdominal adipose tissue via microdialysis catheters; from tissue; host or cells: human subcutaneous abdominal adipose tissue, in vivo

mouse = conditions: cited from earlier work
rabbit = conditions: cited from earlier work
[7] = read-out: Residence Time (converted)

T1 sequence (P28845 whole entry): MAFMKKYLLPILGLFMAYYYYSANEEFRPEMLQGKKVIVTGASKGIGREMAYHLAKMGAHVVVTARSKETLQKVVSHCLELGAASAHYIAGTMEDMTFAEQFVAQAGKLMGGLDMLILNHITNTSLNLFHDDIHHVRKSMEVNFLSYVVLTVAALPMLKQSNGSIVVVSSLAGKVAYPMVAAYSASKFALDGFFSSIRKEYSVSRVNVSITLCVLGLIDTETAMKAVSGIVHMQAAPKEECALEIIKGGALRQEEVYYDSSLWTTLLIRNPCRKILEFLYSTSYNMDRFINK
T3 sequence (P28845 whole entry, the tested form may be a part): as the sequence (P28845 whole entry) above
Sequence of liver HSD-1 (P28845 whole entry): as above
T2 sequence (P28845 whole entry): as above
Sequence of skin HSD-1 (P28845 whole entry): as above

## CC(C)(C(=O)N[C@H]1C2CC3CC1C[C@@](C(N)=O)(C3)C2)N1CCN(c2ccc(C(F)(F)F)cn2)CC1 [ABT-384, (1s,3R,4r,5S,7s)-4-(2-methyl-2-(4-(5-(trifluoromethyl)pyridin-2-yl)piperazin-1-yl)propanamido)adamantane-1-carboxamide]
[1]
  liver cortisone levels (urine tetrahydrocortisone): increased substantially
[2]; in vivo
  plasma levels after multiple doses / steady state, dose proportionality: approximately dose-proportional
[2]
  plasma exposures after single doses, dose proportionality: substantial non-linearity
  estimated target capacity / capacity of saturable distribution: ~1 mg
[3]
  clinical trial efficacy: lack of efficacy
HSD-1 [4]
  Kd lower than the Ki: approximately 60 fold
HSD-1 [5]; [7]
  residence time: 43.5 min
Brain HSD-1
  time after cessation of daily administration up to which complete brain HSD-1 inhibition was observed: up to 40 hours
[6]
  retention in liver: at least 77 days

## CC(C)[C@]1(C)SC(N[C@H]2C[C@@H]3CC[C@H]2C3)=NC1=O [AMG-221, (S,E)-2-(((1S,2S,4R)-bicyclo[2.2.1]heptan-2-yl)imino)-5-isopropyl-5-methylthiazolidin-4-one]
[2]
  plasma exposures after single doses, dose proportionality: nonlinearity of pharmacokinetics

## CCCSc1nc(N2CCC[C@@H](CC(=O)O)C2)ccc1C(=O)NC1CCCCC1 [AZD4017, (S)-2-(1-(5-(cyclohexylcarbamoyl)-6-(propylthio)pyridin-2-yl)piperidin-3-yl)acetic acid]
Liver HSD-1
  liver HSD-1 inhibition: maximal
Skin HSD-1
  skin HSD-1 inhibition after multiple doses: no skin HSD-1 inhibition
Adipose HSD-1
  adipose HSD-1 inhibition after a single dose: demonstrated adipose HSD-1 inhibition
  adipose HSD-1 inhibition after repeated dosing: no sustained inhibitory effect
  tachyphylaxis of human adipose HSD-1 inhibition with multiple dosing: showed tachyphylaxis

## CC(C)(C)c1c(C(=O)NC2C3CC4CC(C3)CC2C4)cnn1-c1ccc(C(=O)O)cc1 (centres unmarked) [AZD8329, 4-(4-(((1r,3r,5r,7r)-adamantan-2-yl)carbamoyl)-5-(tert-butyl)-1H-pyrazol-1-yl)benzoic acid]
Adipose HSD-1
  adipose HSD-1 inhibition after repeated dosing: lost
  tachyphylaxis of human adipose HSD-1 inhibition with multiple dosing: showed tachyphylaxis
HSD-1 [5]; [7]
  residence time: 3.45 min

## N#Cc1ccc2c(c1)[C@H]1CCCN(C(=O)c3ccc4nc[nH]c4c3)[C@H]1C2 [BI-187004, (4aR,9aS)-1-(1H-benzo[d]imidazole-6-carbonyl)-2,3,4,4a,9,9a-hexahydro-1H-indeno[2,1-b]pyridine-6-carbonitrile]
[2]
  plasma exposures after single doses, dose proportionality: substantially below
[3]
  clinical trial efficacy: lack of efficacy

## O=C(CC1(c2ccccc2)C2CC3CC1CC(C2)C3O)N1CC(O)C1 (centres unmarked) [BMS-816336]
HSD-1 [5]
  residence time: 2.15 min

## CC(C)(O)c1cccn2c(C3(c4ccc(Cl)cc4)CC3)nnc12 [BMS-823778, 2-(3-(1-(4-chlorophenyl)cyclopropyl)-[1,2,4]triazolo[4,3-a]pyridin-8-yl)propan-2-ol]
[2]; in vivo
  plasma levels after a single 0.1 or 0.5 mg dose: not detected
  plasma levels after multiple doses / steady state, dose proportionality: dose proportional
[2]
  plasma exposures after single doses, dose proportionality: less than dose proportional
HSD-1 [5]; [7]
  residence time: 2.03 min

## CC1(C)[C@@H](OC(=O)CCC(=O)O)CC[C@]2(C)[C@H]3C(=O)C=C4[C@@H]5C[C@@](C)(C(=O)O)CC[C@]5(C)CC[C@@]4(C)[C@]3(C)CC[C@@H]12 [Carbenoxolone]
mouse
  GC-induced wound healing impairment: prevented

## CC1(C)[C@@H](O[C@H]2O[C@H](C(=O)O)[C@@H](O)[C@H](O)[C@H]2O[C@@H]2O[C@H](C(=O)O)[C@@H](O)[C@H](O)[C@H]2O)CC[C@]2(C)[C@H]3C(=O)C=C4[C@@H]5C[C@@](C)(C(=O)O)CC[C@]5(C)CC[C@@]4(C)[C@]3(C)CC[C@@H]12 [Glycyrrhizin]
rabbit
  intraocular pressure increase associated with intravitreal triamcinolone: partially prevented

## CNC(=O)c1ccc(-c2ccc(C3(C(=O)N4CC[C@@]5(C4)OC(=O)c4ccccc45)CC3)cc2)cn1 [INCB-13739]
[3]
  clinical trial efficacy: support efficacy
HSD-1 [5]
  residence time: 4.53 min

## CC1CN(CC(=O)NC2C3CC4CC2CC(C(N)=O)(C4)C3)S(=O)(=O)N(c2c(Cl)cc(C(F)(F)F)cc2Cl)C1 [KR-67607, (1s,3R,4s,5S,7s)-4-(2-(6-(2,6-dichloro-4-(trifluoromethyl)phenyl)-4-methyl-1,1-dioxido-1,2,6-thiadiazinan-2-yl)acetamido)adamantane-1-carboxamide]
HSD-1 [5]; [7]
  residence time: 8.63 min

## CCS(=O)(=O)CCCC12CCC(c3nnc(-c4ccccc4C(F)(F)F)n3C)(CC1)CC2 [MK-0736, 3-(4-(3-(ethylsulfonyl)propyl)bicyclo[2.2.2]octan-1-yl)-4-methyl-5-(2-(trifluoromethyl)phenyl)-4H-1,2,4-triazole]
[2]
  plasma exposures after single doses, dose proportionality: non-linear, saturable distribution PK

## F[C@H]1C[C@@](c2ccc(Cl)cc2)(c2nnc(C3CC3)n2C2CC2)C1 [MK-0916, 3-((1s,3s)-1-(4-chlorophenyl)-3-fluorocyclobutyl)-4,5-dicyclopropyl-4H-1,2,4-triazole]
[2]; in vivo
  plasma levels after multiple doses / steady state, dose proportionality: approximately dose-proportional
[2]
  plasma exposures after single doses, dose proportionality: substantial non-linearity
  estimated target capacity / capacity of saturable distribution: ~3 mg
HSD-1 [5]; [7]
  residence time: 3.25 min

## N#Cc1ccc(-c2ccc(S(=O)(=O)Nc3cccc(N)n3)cc2)cc1 [PF915275]
mouse
  GC-induced wound healing impairment: prevented
HSD-1 [5]
  residence time: 5.07 min

## O=C(c1csc(-c2cn[nH]c2)c1)N1[C@@H]2CC[C@H]1C[C@](O)(c1ncccn1)C2 [UE-2343, (5-(1H-pyrazol-4-yl)thiophen-3-yl)((1R,3r,5S)-3-hydroxy-3-(pyrimidin-2-yl)-8-azabicyclo[3.2.1]octan-8-yl)methanone]
[2]; in vivo
  plasma levels after single doses of 2 and 5 mg: below the level of quantification
[2]
  plasma exposures after single doses, dose proportionality: greater than dose-proportional
[2]; single 10 mg dose
  mean maximum plasma concentration: 40.4 ng/mL
HSD-1 [5]
  residence time: 9.05 min

Reference: US12329745B2, “Methods and compositions for treating glucocorticoid excess” (Sparrow Pharmaceuticals, Inc., priority 2022, dated 2025)
